Columns and labels:
TYK2 JH2 = target: T1, TYK2 JH2 (Homo sapiens, UniProt P29597); experiment: TYK2 JH2 binding assay (KINOMEscan KdELECT competitive binding); conditions: TYK2 JH2 domain, DiscoverX KINOMEscan KdELECT (Assay A); read-out: Biochemical TYK2_DiscoverX_JH2_BND_Kd
T1 construct: purchased DiscoverX (KINOMEscan KdELECT service); host or cells: E. coli BL21-derived (T7 phage display) or HEK-293
Method in brief: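 The assay measures displacement of DNA- or phage-tagged TYK2 pseudokinase domain from an affinity resin; compound binding lowers the amount captured, read by qPCR. Incubation lasts 1 h at room temperature.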

[1] = test system: JAK1/TYK2 pSTAT5 (Tyr694/699) in THP-1 cell line; experiment: IFNa-stimulated JAK1/TYK2 pSTAT5 (Tyr694/699) inhibition cellular assay, AlphaLISA; assay type: cell-based; conditions: Homo sapiens; THP-1 cells, IFNa-stimulated, AlphaLISA (Assay B); read-out: Cellular_THP1_IFNa-pSTATS_TYK2
Method in brief: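 An eight-point 6-fold titration of compound (0.04–10000 nM final) is given to THP-1 cells for 1 h before 30 min of IFNa exposure. Phospho-STAT5 is read by AlphaLISA at 615 nm. IC50 values are derived by logistic regression with bottom set to 0 and Hill slope set to −1.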

T1 sequence (P29597 589-875 limits assumed): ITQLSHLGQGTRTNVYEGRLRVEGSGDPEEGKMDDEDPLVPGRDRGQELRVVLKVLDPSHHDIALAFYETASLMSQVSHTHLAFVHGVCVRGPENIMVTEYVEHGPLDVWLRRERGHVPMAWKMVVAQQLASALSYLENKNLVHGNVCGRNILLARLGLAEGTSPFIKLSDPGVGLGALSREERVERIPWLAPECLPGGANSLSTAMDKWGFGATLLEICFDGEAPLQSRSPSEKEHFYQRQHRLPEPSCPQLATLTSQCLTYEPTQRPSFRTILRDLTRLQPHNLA

Row | Kd (TYK2 JH2) | IC50 [1] | Structure (SMILES)
1 | ≤ 100 nM | ≤ 500 nM | CNc1ncc(-c2nc3ccc(N4C[C@@H]5C[C@H]4CO5)cn3n2)c2cc(NC(=O)C3CC3)ncc12 [Example 488, N-(5-(6-((1S,4S)-2-oxa-5-azabicyclo[2.2.1]heptan-5-yl)-[1,2,4]triazolo[1,5-a]pyridin-2-yl)-8-(methylamino)-2,7-naphthyridin-3-yl)cyclopropanecarboxamide]
2 | ≤ 100 nM | ≤ 500 nM | CNc1ncc(-c2nc3c(Cl)cccn3n2)c2cc(NC(=O)C3CC3)ncc12 [Example 491, N-(5-(8-chloro-[1,2,4]triazolo[1,5-a]pyridin-2-yl)-8-(methylamino)-2,7-naphthyridin-3-yl)cyclopropanecarboxamide]
3 | ≤ 100 nM | ≤ 500 nM | CNc1ncc(-c2nc3ccc(OC(F)(F)F)cn3n2)c2cc(NC(=O)C3CC3)ncc12 [Example 493A, N-(8-(methylamino)-5-(6-(trifluoromethoxy)-[1,2,4]triazolo[1,5-a]pyridin-2-yl)-2,7-naphthyridin-3-yl)cyclopropanecarboxamide]
4 | ≤ 100 nM | ≤ 500 nM | CNc1ncc(-c2nc3ccc(OC4CC4)cn3n2)c2cc(NC(=O)C3CC3)ncc12 [Example 494, N-(5-(6-cyclopropoxy-[1,2,4]triazolo[1,5-a]pyridin-2-yl)-8-(methylamino)-2,7-naphthyridin-3-yl)cyclopropanecarboxamide]
5 | ≤ 100 nM | ≤ 500 nM | CNc1ncc(-c2nc3ccc(OCC4CC4)cn3n2)c2cc(NC(=O)C3CC3)ncc12 [Example 495, N-(5-(6-(cyclopropylmethoxy)-[1,2,4]triazolo[1,5-a]pyridin-2-yl)-8-(methylamino)-2,7-naphthyridin-3-yl)cyclopropanecarboxamide]
6 | ≤ 100 nM | ≤ 500 nM | CNc1ncc(-c2nc3ccc(OCC(C)(C)O)cn3n2)c2cc(NC(=O)C3CC3)ncc12 [Example 501, N-(5-(6-(2-hydroxy-2-methylpropoxy)-[1,2,4]triazolo[1,5-a]pyridin-2-yl)-8-(methylamino)-2,7-naphthyridin-3-yl)cyclopropanecarboxamide]
7 | ≤ 100 nM | ≤ 500 nM | CNc1ncc(-c2nc3ccc(N4CC5CC(CN(C)C5)C4)cn3n2)c2cc(NC(=O)C3CC3)ncc12 [Example 502, N-(5-(6-(7-methyl-3,7-diazabicyclo[3.3.1]nonan-3-yl)-[1,2,4]triazolo[1,5-a]pyridin-2-yl)-8-(methylamino)-2,7-naphthyridin-3-yl)cyclopropanecarboxamide]
8 | ≤ 100 nM | ≤ 500 nM | CNc1ncc(-c2nc3c(F)cc(C)cn3n2)c2cc(NC(=O)C3CC3)ncc12 [Example 505, N-(5-(8-fluoro-6-methyl-[1,2,4]triazolo[1,5-a]pyridin-2-yl)-8-(methylamino)-2,7-naphthyridin-3-yl)cyclopropanecarboxamide]
9 | ≤ 100 nM | ≤ 500 nM | CCO/C=C\c1cccc2nc(-c3cnc(NC)c4cnc(NC(=O)C5CC5)cc34)nn12 [Example 506, (Z)—N-(5-(5-(2-ethoxyvinyl)-[1,2,4]triazolo[1,5-a]pyridin-2-yl)-8-(methylamino)-2,7-naphthyridin-3-yl)cyclopropanecarboxamide]

Continued, compound first:

Row | Structure (SMILES) | Kd (TYK2 JH2) | IC50 [1]
10 | CNc1ncc(-c2nc3ccc(N4CCC(F)(F)CC4)cn3n2)c2cc(NC(=O)C3CC3)ncc12 [Example 483, N-(5-(6-(4,4-difluoropiperidin-1-yl)-[1,2,4]triazolo[1,5-a]pyridin-2-yl)-8-(methylamino)-2,7-naphthyridin-3-yl)cyclopropanecarboxamide] | ≤ 100 nM | ≤ 500 nM
11 | CNc1ncc(-c2nc3ccc(N4CCC(F)CC4)cn3n2)c2cc(NC(=O)C3CC3)ncc12 [Example 484, N-(5-(6-(4-fluoropiperidin-1-yl)-[1,2,4]triazolo[1,5-a]pyridin-2-yl)-8-(methylamino)-2,7-naphthyridin-3-yl)cyclopropanecarboxamide] | ≤ 100 nM | ≤ 500 nM
12 | CNc1ncc(-c2nc3ccc(N4CCCC(F)(F)C4)cn3n2)c2cc(NC(=O)C3CC3)ncc12 [Example 485, N-(5-(6-(3,3-difluoropiperidin-1-yl)-[1,2,4]triazolo[1,5-a]pyridin-2-yl)-8-(methylamino)-2,7-naphthyridin-3-yl)cyclopropanecarboxamide] | ≤ 100 nM | ≤ 500 nM
13 | CNc1ncc(-c2nc3ccc(N4CCC(F)C4)cn3n2)c2cc(NC(=O)C3CC3)ncc12 (stereo not shown) [Example 486, N-(5-(6-(3-fluoropyrrolidin-1-yl)-[1,2,4]triazolo[1,5-a]pyridin-2-yl)-8-(methylamino)-2,7-naphthyridin-3-yl)cyclopropanecarboxamide] | ≤ 100 nM | ≤ 500 nM
14 | CNc1ncc(-c2nc3ccc(N4C5CCC4COC5)cn3n2)c2cc(NC(=O)C3CC3)ncc12 [Example 487, N-(5-(6-(3-oxa-8-azabicyclo[3.2.1]octan-8-yl)-[1,2,4]triazolo[1,5-a]pyridin-2-yl)-8-(methylamino)-2,7-naphthyridin-3-yl)cyclopropanecarboxamide] | ≤ 100 nM | ≤ 500 nM
15 | CNc1ncc(-c2nc3ccc(N4C[C@H]5C[C@@H]4CO5)cn3n2)c2cc(NC(=O)C3CC3)ncc12 [Example 489, N-(5-(6-((1R,4R)-2-oxa-5-azabicyclo[2.2.1]heptan-5-yl)-[1,2,4]triazolo[1,5-a]pyridin-2-yl)-8-(methylamino)-2,7-naphthyridin-3-yl)cyclopropanecarboxamide] | ≤ 100 nM | ≤ 500 nM
16 | CNc1ncc(-c2nc3cccc(Cl)n3n2)c2cc(NC(=O)C3CC3)ncc12 [Example 490, N-(5-(5-chloro-[1,2,4]triazolo[1,5-a]pyridin-2-yl)-8-(methylamino)-2,7-naphthyridin-3-yl)cyclopropanecarboxamide] | ≤ 100 nM | ≤ 500 nM
17 | CNc1ncc(-c2nc3cc(OC)ccn3n2)c2cc(NC(=O)C3CC3)ncc12 [Example 492, N-(5-(7-methoxy-[1,2,4]triazolo[1,5-a]pyridin-2-yl)-8-(methylamino)-2,7-naphthyridin-3-yl)cyclopropanecarboxamide] | ≤ 100 nM | ≤ 500 nM
18 | CNc1ncc(-c2nc3ccc(C(C)(F)F)cn3n2)c2cc(NC(=O)C3CC3)ncc12 [Example 493, N-(5-(6-(1,1-difluoroethyl)-[1,2,4]triazolo[1,5-a]pyridin-2-yl)-8-(methylamino)-2,7-naphthyridin-3-yl)cyclopropanecarboxamide] | ≤ 100 nM | ≤ 500 nM
19 | CNc1ncc(-c2nc3ccc(C(F)(F)F)cn3n2)c2cc(NC(=O)C3CC3)ncc12 [Example 496, N-(8-(methylamino)-5-(6-(trifluoromethyl)-[1,2,4]triazolo[1,5-a]pyridin-2-yl)-2,7-naphthyridin-3-yl)cyclopropanecarboxamide] | ≤ 100 nM | ≤ 500 nM
20 | CNc1ncc(-c2nc3ccc(S(C)(=O)=O)cn3n2)c2cc(NC(=O)C3CC3)ncc12 [Example 497, N-(8-(methylamino)-5-(6-(methylsulfonyl)-[1,2,4]triazolo[1,5-a]pyridin-2-yl)-2,7-naphthyridin-3-yl)cyclopropanecarboxamide] | ≤ 100 nM | ≤ 500 nM
21 | CNc1ncc(-c2nc3ccc(OCC(C)(C)C#N)cn3n2)c2cc(NC(=O)C3CC3)ncc12 [Example 498, N-(5-(6-(2-cyano-2-methylpropoxy)-[1,2,4]triazolo[1,5-a]pyridin-2-yl)-8-(methylamino)-2,7-naphthyridin-3-yl)cyclopropanecarboxamide] | ≤ 100 nM | ≤ 500 nM
22 | CNc1ncc(-c2nc3cc(F)c(N4CCOC(C)C4)cn3n2)c2cc(NC(=O)C3CC3)ncc12 (stereo not shown) [Example 499, N-(5-(7-fluoro-6-(2-methylmorpholino)-[1,2,4]triazolo[1,5-a]pyridin-2-yl)-8-(methylamino)-2,7-naphthyridin-3-yl)cyclopropanecarboxamide] | ≤ 100 nM | ≤ 500 nM
23 | CNc1ncc(-c2nc3ccc(OCc4ccccc4)cn3n2)c2cc(NC(=O)C3CC3)ncc12 [Example 500, N-(5-(6-(benzyloxy)-[1,2,4]triazolo[1,5-a]pyridin-2-yl)-8-(methylamino)-2,7-naphthyridin-3-yl)cyclopropanecarboxamide] | ≤ 100 nM | ≤ 500 nM
24 | CNc1ncc(-c2nc3ccc(C)cn3n2)c2cc(NC(=O)C3CC3)ncc12 [Example 503, N-(5-(6-methyl-[1,2,4]triazolo[1,5-a]pyridin-2-yl)-8-(methylamino)-2,7-naphthyridin-3-yl)cyclopropanecarboxamide] | ≤ 100 nM | ≤ 500 nM
25 | CNc1ncc(-c2nc3ccc(N4CC5CN(C)CC(C4)O5)cn3n2)c2cc(NC(=O)C3CC3)ncc12 [Example 504, N-(5-(6-(7-methyl-9-oxa-3,7-diazabicyclo[3.3.1]nonan-3-yl)-[1,2,4]triazolo[1,5-a]pyridin-2-yl)-8-(methylamino)-2,7-naphthyridin-3-yl)cyclopropanecarboxamide] | ≤ 100 nM | ≤ 500 nM
26 | CCOCCc1cccc2nc(-c3cnc(NC)c4cnc(NC(=O)C5CC5)cc34)nn12 [Example 507, N-(5-(5-(2-ethoxyethyl)-[1,2,4]triazolo[1,5-a]pyridin-2-yl)-8-(methylamino)-2,7-naphthyridin-3-yl)cyclopropanecarboxamide] | ≤ 100 nM | ≤ 500 nM
